Reference: US20150299143A1, “SUBSTITUTED TRIAZOLE AND IMIDAZOLE COMPOUNDS” (HOFFMANN-LA ROCHE INC., priority 2012, published 2015)

Legend:
[1] = biological target: T1, β 5i (chymotrypsin-like activity) (Homo sapiens, UniProt P20618+P28062); assay: Cell-Based Proteasome subunit activity/selectivity assay, β5i, substrate (ANW)2Rh110; conditions: Ramos cells; substrate (ANW)2Rh110 (β5i); highest concentration tested 20 μM; read-out: Ic50:ramos:ac-(anw)2-r110
T1 construct: protease activity associated with the proteasome complex in cultured cells; endogenous in cells; host or cells: Ramos cells
From the text: (§1) Cell-Based Proteasome Activity/Selectivity Assay
(§2) The Cell-Based Proteasome subunit activity/selectivity assay was a panel of 5 fluorogenic assays that independently measured the activity of β5c or β 5i (chymotrypsin-like activity), β 2c/2i (trypsin-like), and β 1c or β 1i (caspase-like) protease activity associated with the proteasome complex in cultured cells. Specifically, the following substrates were used for respective subunit activities: β 1i (PAL)2Rh110, β 1c: (LLE)2 Rh110, β 2c/2i: (KQL)2Rh110, β 5c: (WLA)2Rh110, β 5i: (ANW)2Rh110. The following procedure was followed:
(§3) Added 0.5 μl of 100× 4-fold serial diluted test compounds or DMSO to each well. Highest concentration of compound tested was 20 μM, thus compound serial dilution started from […]. Incubated for 30 minutes at 37° C. Then equilibrated at room temperature for 15 minutes. […] Shaked for one minute @ 700 rpm. Incubated for 120 min at room temperature. Then read the plates with an Envision multilabel plate reader (PerkinElmer) with 500 nm excitation/519 nm emission.

[2] = biological target: T2, β5c (chymotrypsin-like activity) (Homo sapiens, UniProt P20618+P28074); assay: Cell-Based Proteasome subunit activity/selectivity assay, β5c, substrate (WLA)2Rh110; conditions: Ramos cells; substrate (WLA)2Rh110 (β5c); highest concentration tested 20 μM; read-out: Ic50:ramos:rh110-(wla)2
T2 construct: protease activity associated with the proteasome complex in cultured cells; endogenous in cells; host or cells: Ramos cells
From the text: as §1, §2, §3

β 2c/2i (trypsin-like) = assay: Cell-Based Proteasome subunit activity/selectivity assay, β2c/2i, substrate (KQL)2Rh110; conditions: Ramos cells; substrate (KQL)2Rh110 (β2c/2i); highest concentration tested 20 μM
From the text: as §1, §2, §3

β 1i (caspase-like) = biological target: T3, β 1i (caspase-like) (Homo sapiens, UniProt P28065+P40306); assay: Cell-Based Proteasome subunit activity/selectivity assay, β1i, substrate (PAL)2Rh110; conditions: Ramos cells; substrate (PAL)2Rh110 (β1i); highest concentration tested 20 μM; read-out: Ic50:ramos:rh110-(pal)2
T3 construct: protease activity associated with the proteasome complex in cultured cells; endogenous in cells; host or cells: Ramos cells
From the text: as §1, §2, §3

β 1c (caspase-like) = biological target: T4, β 1c (caspase-like) (Homo sapiens, UniProt P28072+Q99436); assay: Cell-Based Proteasome subunit activity/selectivity assay, β1c, substrate (LLE)2Rh110; conditions: Ramos cells; substrate (LLE)2Rh110 (β1c); highest concentration tested 20 μM; read-out: Ic50:ramos:rh110-(lle)2
T4 construct: protease activity associated with the proteasome complex in cultured cells; endogenous in cells; host or cells: Ramos cells
From the text: as §1, §2, §3

| SMILES | IC50 [1] [nM] | IC50 [2] [µM] | IC50 (β 2c/2i (trypsin-like)) [µM] | IC50 (β 1i (caspase-like)) [µM] | IC50 (β 1c (caspase-like)) [µM] |
| --- | --- | --- | --- | --- | --- |
| CCc1ccc(C(C#N)NC(=O)c2cn(CCNC(=O)c3ccc(OC)c(OC)c3OC)nn2)cc1 (stereo not shown) [Example 1, 1-[2-(2,3,4-Trimethoxy-benzoylamino)-ethyl]-1H-[1,2,3]triazole-4-carboxylic acid [cyano-(4-ethyl-phenyl)-methyl]-amide] | 80 | ≥ 20 | ≥ 20 | ≥ 20 | ≥ 20 |
| CCc1ccc(CNC(=O)c2cn(CCNC(=O)c3ccc(OC)c(OC)c3OC)nn2)cc1 [Example 7, 1-[2-(2,3,4-Trimethoxy-benzoylamino)-ethyl]-1H-[1,2,3]triazole-4-carboxylic acid 4-ethyl-benzylamide] | 1160 | ≥ 20 | ≥ 20 | ≥ 20 | ≥ 20 |
| N#CC(NC(=O)c1cn(CCNC(=O)c2ccc(C(F)(F)F)cc2F)nn1)c1ccc(C(F)(F)F)cc1 (stereo not shown) [Example 73, 1-[2-(2-Fluoro-4-trifluoromethyl-benzoylamino)-ethyl]-1H-[1,2,3]triazole-4-carboxylic acid [cyano-(4-trifluoromethyl-phenyl)-methyl]-amide] | 184 | ≥ 20 | ≥ 20 | ≥ 20 | ≥ 20 |
| COc1cc(OC(F)(F)F)ccc1C(=O)NCCn1cc(C(=O)NC(C#N)c2ccc(C(F)(F)F)cc2)nn1 (stereo not shown) [Example 71, 1-[2-(2-Methoxy-4-trifluoromethoxy-benzoylamino)-ethyl]-1H-[1,2,3]triazole-4-carboxylic acid [cyano-(4-trifluoromethyl-phenyl)-methyl]-amide] | 5590 | ≥ 20 | ≥ 20 | ≥ 20 | ≥ 20 |
| CCc1ccc(C(C#N)NC(=O)c2cn(CCNC(=O)c3ccc(Oc4ccc(Cl)cc4)cn3)nn2)cc1 (stereo not shown) [Example 43, 5-(4-Chloro-phenoxy)-pyridine-2-carboxylic acid [2-(4-{[cyano-(4-ethyl-phenyl)-methyl]-carbamoyl}-[1,2,3]triazol-1-yl)-ethyl]-amide] | 1430 | 6.21 | ≥ 20 | ≥ 20 | ≥ 20 |
| CCc1ccc(C(C#N)NC(=O)c2cn(CCNC(=O)c3cc(Cl)ccn3)nn2)cc1 (stereo not shown) [Example 27, 4-Chloro-pyridine-2-carboxylic acid [2-(4-{[cyano-(4-ethyl-phenyl)-methyl]-carbamoyl}-[1,2,3]triazol-1-yl)-ethyl]-amide] | 4520 | ≥ 20 | ≥ 20 | ≥ 20 | ≥ 20 |
| CCc1ccc(C(C#N)NC(=O)c2cn(CCNC(=O)c3cc(OC)ccc3F)nn2)cc1 (stereo not shown) [Example 32, 1-[2-(2-Fluoro-5-methoxy-benzoylamino)-ethyl]-1H-[1,2,3]triazole-4-carboxylic acid [cyano-(4-ethyl-phenyl)-methyl]-amide] | 682 | ≥ 20 | ≥ 20 | ≥ 20 | ≥ 20 |
| N#CC(NC(=O)c1cn(CCNC(=O)c2ccc(C(F)(F)F)cc2F)nn1)c1ccc(C2CC2)cc1 (stereo not shown) [Example 76, 1-[2-(2-Fluoro-4-trifluoromethyl-benzoylamino)-ethyl]-1H-[1,2,3]triazole-4-carboxylic acid [cyano-(4-cyclopropyl-phenyl)-methyl]-amide] | 50 | ≥ 20 | ≥ 20 | ≥ 20 | ≥ 20 |
| CCc1ccc(C(C#N)NC(=O)c2cn(CCNC(=O)c3cccc(OC)n3)nn2)cc1 (stereo not shown) [Example 26, 6-Methoxy-pyridine-2-carboxylic acid [2-(4-{[cyano-(4-ethyl-phenyl)-methyl]-carbamoyl}-[1,2,3]triazol-1-yl)-ethyl]-amide] | 5380 | ≥ 20 | ≥ 20 | ≥ 20 | ≥ 20 |
| CCc1ccc(C(C#N)NC(=O)c2cn(CCNC(=O)c3cc(C(F)(F)F)ccc3F)nn2)cc1 (stereo not shown) [Example 37, 1-[2-(2-Fluoro-5-trifluoromethyl-benzoylamino)-ethyl]-1H-[1,2,3]triazole-4-carboxylic acid [cyano-(4-ethyl-phenyl)-methyl]-amide] | 71 | ≥ 20 | ≥ 20 | ≥ 20 | ≥ 20 |
| CCc1ccc(C(C#N)NC(=O)c2cn(CCNC(=O)c3cncc(Br)c3OC)nn2)cc1 (stereo not shown) [Example 30, 5-Bromo-N-[2-(4-{[cyano-(4-ethyl-phenyl)-methyl]-carbamoyl}-[1,2,3]triazol-1-yl)-ethyl]-4-methoxy-nicotinamide] | 1020 | 6.78 | ≥ 20 | ≥ 20 | 17 |
| COc1cc(C(F)(F)F)ccc1C(=O)NCCn1cc(C(=O)NC(C#N)c2ccc(C(F)(F)F)cc2)nn1 (stereo not shown) [Example 72, 1-[2-(2-Methoxy-4-trifluoromethyl-benzoylamino)-ethyl]-1H-[1,2,3]triazole-4-carboxylic acid [cyano-(4-trifluoromethyl-phenyl)-methyl]-amide] | 524 | ≥ 20 | ≥ 20 | ≥ 20 | ≥ 20 |
| CCc1ccc(C(C#N)NC(=O)c2cn(CCNC(=O)c3ccc(Cl)cn3)nn2)cc1 (stereo not shown) [Example 44, 5-Chloro-pyridine-2-carboxylic acid [2-(4-{[cyano-(4-ethyl-phenyl)-methyl]-carbamoyl}-[1,2,3]triazol-1-yl)-ethyl]-amide] | 2930 | ≥ 20 | ≥ 20 | ≥ 20 | ≥ 20 |
| CCOc1ccc(C(=O)NCCn2cc(C(=O)NC(C#N)c3ccc(CC)cc3)nn2)nc1 (stereo not shown) [Example 28, 5-Ethoxy-pyridine-2-carboxylic acid [2-(4-{[cyano-(4-ethyl-phenyl)-methyl]-carbamoyl}-[1,2,3]triazol-1-yl)-ethyl]-amide] | 933 | 13.3 | ≥ 20 | ≥ 20 | ≥ 20 |
| CCc1ccc(C(C#N)NC(=O)c2cn(CCNC(=O)c3ccccc3COC)nn2)cc1 (stereo not shown) [Example 33, 1-[2-(2-Methoxymethyl-benzoylamino)-ethyl]-1H-[1,2,3]triazole-4-carboxylic acid [cyano-(4-ethyl-phenyl)-methyl]-amide] | 1800 | ≥ 20 | ≥ 20 | ≥ 20 | ≥ 20 |
| CC1=C(C(=O)NCCn2cc(C(=O)NC(C#N)c3ccc(C(F)(F)F)cc3)nn2)Cc2ccccc21 (stereo not shown) [Example 70, 1-{2-[(3-Methyl-1H-indene-2-carbonyl)-amino]-ethyl}-1H-[1,2,3]triazole-4-carboxylic acid [cyano-(4-trifluoromethyl-phenyl)-methyl]-amide] | 445 | 10.8 | ≥ 20 | ≥ 20 | ≥ 20 |
| COc1ccc(C(=O)NCCn2cc(C(=O)N[C@@H](Cc3ccccc3)C(=O)C(=O)NCc3ccccc3)nn2)c(OC)c1OC [Example 88, 1-[2-(2,3,4-Trimethoxy-benzoylamino)-ethyl]-1H-[1,2,3]triazole-4-carboxylic acid ((S)-1-benzyl-2-benzylcarbamoyl-2-oxo-ethyl)-amide] | 461 | 8.6 | ≥ 20 | ≥ 20 | ≥ 20 |
| COc1ccc(C(=O)NCCn2cc(C(=O)NC(C#N)c3ccc(Br)cc3)nn2)c(OC)c1OC (stereo not shown) [Example 54, 1-[2-(2,3,4-Trimethoxy-benzoylamino)-ethyl]-1H-[1,2,3]triazole-4-carboxylic acid [(4-bromo-phenyl)-cyano-methyl]-amide] | 101 | ≥ 20 | ≥ 20 | ≥ 20 | ≥ 20 |
| CCc1ccc(C(C#N)NC(=O)c2cn(CCNC(=O)c3ccc(OC)nc3OC)nn2)cc1 (stereo not shown) [Example 35, N-[2-(4-{[Cyano-(4-ethyl-phenyl)-methyl]-carbamoyl}-[1,2,3]triazol-1-yl)-ethyl]-2,6-dimethoxy-nicotinamide] | 491 | 5.49 | ≥ 20 | ≥ 20 | ≥ 20 |
| COc1ccc(C(=O)CNC(=O)c2cn(CCNC(=O)c3ccc(OC)c(OC)c3OC)nn2)cc1 [Example 77, 1-[2-(2,3,4-Trimethoxy-benzoylamino)-ethyl]-1H-[1,2,3]triazole-4-carboxylic acid [2-(4-methoxy-phenyl)-2-oxo-ethyl]-amide] | 8750 | ≥ 20 | ≥ 20 | ≥ 20 | ≥ 20 |
